The record followed here is patent US10882863B2, “Compounds for reducing c-Myc in c-Myc overexpressing cancers background” (The Trustees of Columbia University in the City of New York, priority 2016, dated 2021).

A word on the viability: it is the share of living cells, or the viability signal relative to a control. The term IC50 denotes the concentration that gives 50% inhibition. Low readings indicate greater potency, high ones weaker potency.

Assay [1] relates to LY10 cells. Kind of assay: Cell Titer Glo viability, lymphoma cell line LY10. The format is cell-based. As to conditions: for viability at 50 µM: LY10, 50 uM. The procedure: (§1) Cytotoxicity was performed on cultured cells using Cell Titer Glo, as previously described. Experiments were carried out in 96-well plates, with each treatment in triplicate. Samples were taken at typically 24 hours, 48 hours, and/or 72 hours after treatment, as indicated. Cytotoxicity was expressed by the decreasing percentage of live cells in each treatment relative to the untreated control from the same experiment, as a function of time. IC50 (half the maximal inhibitory concentration) for each cell line was calculated using the CalcuSyn Version 2.0 software (Biosoft).
The lymphoma cell line LY10 was treated with CUX-03166 (′166 compound) for 24 hours, 48 hours and 72 hours. Cells were collected from the treatment group and the vehicle treated negative control. Viable cells were quantitated by the Cell-Titer Glo assay from Promega. Viable cells in the treated cells were expressed as a percentage of the negative control. […] At a concentration of 50 uM, viability of cells drop to 0% just at 24 hours of treatment. Cells were also treated with Cal-101 and TGR-1202 and viability was determined at 24 hr. For lower concentrations of 5 μm and 15 μM, viability dropped to ˜80% for both treatments. However, as concentrations increased up to 50 μM, viability remained at ˜80% for Cal-101 and modestly dropped to ˜65% for TGR-1202, as shown in FIG. 1.

Assay [2] relates to LY7 cells. Briefly: Cell Titer Glo viability, lymphoma cell line LY7 (OCI-LY7, GCB-DLBCL). The format is cell-based. As to conditions: for viability at 15 µM: LY7, 15 uM; for viability at 25 µM: LY7, 25 uM. As to the method: as §1
The lymphoma cell line LY7 was treated with CUX-03166 for 24 hr (diamond), 48 hours (square) and 72 hours (triangle). Viability was determined similar to that for Example 2. […] At 25 uM concentrations, viability dropped to 0% at 24 hours.
(§2) CUX-0404A reduces viability of OCI-LY7 cells (germinal center diffuse large B cell lymphoma, GCB-DLBCL), see FIG. 4. The lymphoma cell line LY7 was treated with CUX-0404A for 24 hours (dark circle), 48 hours (light circle) or CUX0404B for 24 hours (dark square) or 48 hours (light square). Viability was determined similar to that for FIG. 1. At 15 uM concentrations, viability of cells dropped to 60% at 24 hours, ˜42% at 48 hours, At 25 uM concentrations, viability dropped to 0% at 24 hours. FIG. 5. CUX-0404A reduces viability of Z-138 (mantle cel lymphoma, MCL) cells more potently than TG-1202. […] Viability was determined similar to that for FIG. 1. At 25 uM concentrations, viability of cells dropped to 20% for the CUX-0404A treatment as compared to 60% for TGR-1202

Assay [3] relates to Z-138 (mantle cel lymphoma, MCL) cells. Kind of assay: Cell Titer Glo viability, Z-138 mantle cell lymphoma cells. It is filed as cell-based. As to conditions: Homo sapiens; Z-138, 25 uM, 24 hours. As to the method: as §1, §2
Background: In ATP-based viability assays light output follows the ATP content of the culture.

The test system of assay [4] is c-Myc. Briefly: Western blot of c-Myc level in LY7 (GCB-DLBCL) cells. The following applies: for reduction in c-Myc (Western blot): LY-7, 25 uM, 6 hours. It is filed as cell-based. The procedure: (§3) Western blot was performed on whole protein extract from cultured cells under specified treatment conditions, most often for 24 hours. Western blotting was performed according to standard protocols, using the chemiluminescence detection system from Thermo Scientific. The primary antibodies were purchased from Cell Signaling Technology unless specified otherwise, and were against these proteins: 4EBP1, phos-4EBP1, S6K, phos-S6K, Bcl2, Bcl-xL, PARP, c-myc, B-catenin, P-4EBP1 (S65), P-4EBP1 (T70). Signals of beta-actin and GAPDH were used as loading control. Goat anti-rabbit or anti-mouse secondary antibodies were purchased from Santa Cruz Biotechnology.
(§4) The lymphoma cell lines LY10 and LY7 were treated with PF4800567 (PF), Cal-101 (Cal), TGR-1202 (TG) and CUX-03166 as single agents for 6 hours all at 25 uM concentrations. Protein extracts were processed for Western blot using antibodies against c-Myc, B-Catenin, phosphorylated 4EBP1, total 4EBP1, and beta actin.
(§5) FIG. 6. […] Protein extracts were processed for Western blot using antibodies against c-Myc, B-Catenin, phosphorylated 4EBP1, total 4EBP1, P-p70S6K, P70S6K, PARP and beta actin.
For orientation: In western blotting, separated proteins are transferred to a membrane and probed.

Assay [5] relates to phosphorylation of 4EBP1. Briefly: Western blot of phosphorylated 4EBP1 in GCB-DLBCL lymphoma cell line. The format is cell-based. As to conditions: 12 hours, 15 and 20 uM. As to the method:
as §3, §5

In assay [6] the target is T1, CK1epsilon (Homo sapiens, UniProt P49674).
T1 construct: purchased Reaction Biology
T1 sequence (P49674 whole entry): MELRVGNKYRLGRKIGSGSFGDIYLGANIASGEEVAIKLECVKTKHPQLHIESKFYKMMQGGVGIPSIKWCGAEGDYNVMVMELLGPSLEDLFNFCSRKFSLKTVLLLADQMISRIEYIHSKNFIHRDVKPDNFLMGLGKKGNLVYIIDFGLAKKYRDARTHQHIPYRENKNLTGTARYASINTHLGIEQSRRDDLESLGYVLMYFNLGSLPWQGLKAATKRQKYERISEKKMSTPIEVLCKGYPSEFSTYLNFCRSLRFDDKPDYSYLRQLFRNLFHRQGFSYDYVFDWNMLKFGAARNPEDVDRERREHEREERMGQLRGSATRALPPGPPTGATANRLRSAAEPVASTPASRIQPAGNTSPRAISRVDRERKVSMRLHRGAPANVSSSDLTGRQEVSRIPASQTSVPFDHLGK
Kind of assay: CK1ε kinase activity assay (radioisotope filtration binding assay). It is filed as biochemical. As to conditions: 10 μM ATP, 3-fold serial dilution from 100 μM. The procedure: The CK-1 assay was conducted according to the techniques disclosed in Anastassiadis et al, Nat Biotechnol; 29(11): 1039-1045. Briefly, specific kinase/substrate pairs along with required cofactors were prepared in reaction buffer; 20 mM Hepes pH 7.5, 10 mM MgCl2, 1 mM EGTA, 0.02% Brij35, 0.02 mg/ml BSA, 0.1 mM Na3VO4, 2 mM DTT, 1% DMSO (for specific details of individual kinase reaction components see Supplementary Table 2, Anastassiadis et al. 2011). Compounds were delivered into the reaction, followed ˜20 minutes later by addition of a mixture of ATP (Sigma, St. Louis Mo.) and 33P ATP (Perkin Elmer, Waltham Mass.) to a final concentration of 10 μM. Reactions were carried out at room temperature for 120 min, followed by spotting of the reactions onto P81 ion exchange filter paper (Whatman Inc., Piscataway, N.J.). Unbound phosphate was removed by extensive washing of filters in 0.75% phosphoric acid. […] IC50 values and curve fits were obtained using Prism (GraphPad Software). • Substrate: Peptide substrate, [KRRRAL[pS]VASLPGL], 20 μM ATP 10 μM • Reaction: Substrate+[γ-33P]-ATP 33P-Substrate+ADP • Assay: radioisotope filtration binding assay (Reaction Biology). […]

Assay [7] concerns c-Myc. Briefly: Western blot of c-Myc level in LY10 cells. The following applies: LY-10, 25 uM, 6 hours, vs vehicle. It is filed as cell-based. The procedure:
as §3, §4

For assay [8], the system named is phosphorylation of 4EBP1. Briefly: Western blot of phosphorylated 4EBP1 in LY10 cells. It is filed as cell-based. As to conditions: LY-10, 25 uM, 6 hours, vs vehicle. As to the method:
as §3, §4

The mark [9] stands for this setting: 24 hours, read-out: viability (viable cells as percentage of negative control).

Where two headings read alike, the source gives them in different places.

The compound `CC(C)Oc1ccc(-c2nn([C@@H](C)c3nc4ncc(Br)c(N(C)C)c4c(=O)n3-c3ccccc3)c3ncnc(N)c23)cc1F` [CUX-0404A] returned a viability at 20 µM in assay [1] (LY10 (as printed in summary), 20 μM, 48 hours) of 0%. Moreover, the viability at 25 µM in assay [1] (LY10 (as printed in summary), 25 μM, 24 hours, read-out: viability) is 0%; in assay [2] (24 hours) it was 0%; in assay [3], 20%. Further, the viability at 15 µM is 60% in assay [2] (24 hours) and ~42% in assay [2] (48 hours). For the same compound, in assay [4] (GCB-DLBCL lymphoma cell line, 12 hours, 20 uM), the “c-myc level (Western blot)” value was “undetectable”. Further, the “reduction of c-Myc level (Western blot)” value in assay [4] (GCB-DLBCL lymphoma cell line, 12 hours, 15 and 20 uM, vs vehicle) is listed as “significantly greater reduction”. Further, the “inhibition of phosphorylation of 4EBP1 (Western blot)” value in assay [5] was “Potent Inhibition”. Moreover, the IC50 in assay [6] was determined as 3.21 µM.
With `CC[C@@H](c1nc2cccc(F)c2c(=O)n1-c1ccccc1)n1nc(-c2ccc(OC(C)C)c(F)c2)c2c(N)ncnc21` [CUX-03166], the viability at 25 µM in assay [1] (LY10, 25 uM, 48 hours, read-out: viability (viable cells as percentage of negative control)) is 0%; in assay [2] (24 hours), 0%. For the same compound, in assay [1] (setting [9]), the viability at 50 µM worked out at 0%. Further, the values for the viability at 15 µM in assay [2] (24 hours), in assay [2] (48 hours) and in assay [2] (72 hours) were 40%, 10% and ~0%, respectively. In assay [7], the “inhibition of the c-Myc level (Western blot)” value is “significantly greater reduction”. In assay [4] (LY7 cells, Western blot), the “increase in potency in inhibiting c-Myc compared to TGR-1202” value was “near-fiftyfold increase in potency”. Also, the “reduction in c-Myc (Western blot)” value in assay [4] is reported as “undetectable level”.
`Nc1ncnc2c1c(COc1cccc(Cl)c1)nn2C1CCOCC1` [PF4800, reference compound]: the “inhibition of the c-Myc level (Western blot)” value in assay [7] is recorded as “moderate inhibition”. Further, the “reduction in c-Myc (Western blot)” value in assay [4] is listed as “modest reduction”. The “inhibition of phosphorylation of 4EBP1 (Western blot)” value in assay [8] is “moderate inhibition”.
For the compound `CC[C@H](Nc1ncnc2[nH]cnc12)c1nc2cccc(F)c2c(=O)n1-c1ccccc1` [Cal-101, reference compound], the viability at 50 µM in assay [1] (setting [9]) was ~80%.
